From BindingDB's records for doi:10.1016/s0960-894x(02)01027-2 (Glaxosmithkline, 2003) come the findings set out here.

The first test addresses Methionine--tRNA ligase (Staphylococcus aureus). The test is described as follows: Compound tested for inhibition of Staphylococcus aureus MRS(methionyl tRNA synthetase) in aminoacylation assay.
On to `Oc1cc(NCCCNCc2cc(Br)cc(Br)c2)nc2ccccc12`, for which the IC50 (as a rule, the concentration that inhibits the measured activity by half) is below 3 nM. On the same count and under the same terms, next, `CCOc1c(I)cc(I)cc1CNCCCNc1cc(O)c2ccccc2n1`: below 3 nM.

Take `Oc1cc(NCCCNCc2cc(Cl)cc(Cl)c2Cl)nc2ccccc12`: the IC50 is below 3 nM.

The target is the same in a further test. Described as above. This is another data set of the same source.
Molecule `Nc1c(Br)cc(Br)cc1CNCCCNc1cc(O)c2ccccc2n1` [2-[3-(2-Amino-3,5-dibromo-benzylamino)-propylamino]-1H-quinolin-4-one] had a concentration for half-maximal inhibition (IC50) of 9.1 nM. Same read-out and setting: next, `O=C(NCCCNc1cc(O)c2ccccc2n1)c1ccc(Cl)c(Cl)c1` [3,4-Dichloro-N-[3-(4-oxo-1,4-dihydro-quinolin-2-ylamino)-propyl]-benzamide]: 140 nM. Regarding `Oc1cc(NCCCOCc2ccc(Cl)c(Cl)c2)nc2ccccc12` [2-[3-(3,4-Dichloro-benzyloxy)-propylamino]-1H-quinolin-4-one], half-maximal inhibition (IC50) required 50 nM. On the same count and under the same terms, next, `Oc1cc(NCCCNCc2cc(Br)cc(Br)c2OCC(F)(F)F)nc2ccccc12` [2-{3-[3,5-Dibromo-2-(2,2,2-trifluoro-ethoxy)-benzylamino]-propylamino}-1H-quinolin-4-one]: 11 nM; `Oc1cc(NCCCNCc2cc(Cl)cc(Cl)c2)nc2ccccc12` [2-[3-(3,5-Dichloro-benzylamino)-propylamino]-1H-quinolin-4-one]: 3 nM; `Oc1cc(NCCCNCc2ccccc2)nc2ccccc12` [2-(3-Benzylamino-propylamino)-1H-quinolin-4-one]: 300 nM. On the same count and under the same terms, the value for `CCOc1c(Br)cc(Br)cc1CNCCCNc1cc(O)c2ccccc2n1` [2-[3-(3,5-Dibromo-2-ethoxy-benzylamino)-propylamino]-1H-quinolin-4-one] was 4.4 nM; that for `CCOc1c(Br)cc(SC)cc1CNCCCNc1cc(O)c2ccccc2n1` [2-[3-(3-Bromo-2-ethoxy-5-methylsulfanyl-benzylamino)-propylamino]-1H-quinolin-4-one] was 4.7 nM.
